{
  "source": "patent US11006631B2",
  "about": "“Substituted pyrimidinyloxy pyridine derivatives as herbicides” (FMC Corporation, priority 2015, dated 2021)",
  "format_in_all_cases": "in vivo",
  "key": {"[1]": {"system": "kochia (Kochia scoparia)", "assay": "Test A preemergence, kochia", "conditions": "0 to 100 scale", "text": "(§1) Seeds of plant species selected from bamyardgrass (Echinochloa crus-galli), kochia (Kochia scoparia), ragweed (common ragweed, Ambrosia elatior), ryegrass, Italian (Italian ryegrass, Lolium multiflorum), foxtail, giant (giant foxtail, Setaria faberii), pigweed (Amaranthus retroflexus), crabgrass, large (large crabgrass, Digitaria sanguinalis), momingglory (Ipomoea spp.), velvetleaf (Abutilon theophrasti), wheat (Triticum aestivum), and corn (Zea mays) were planted into a blend of loam soil and sand and treated preemergence with a directed soil spray using test chemicals formulated in a non-phytotoxic solvent mixture which included a surfactant. At the same time, plants selected from these crop and weed species and also blackgrass (Alopecurus myosuroides), and galium (catchweed bedstraw, Galium aparine) were planted in pots containing the same blend of loam soil and sand and treated with postemergence applications of test chemicals formulated in the same manner. Plants ranged in height from 2 to 10 cm and were in the one- to two-leaf stage for the postemergence treatment. Treated plants and untreated controls were maintained in a greenhouse for approximately 10 days, after which time all treated plants were compared to untreated controls and visually evaluated for injury. Plant response ratings, summarized in Table A, are based on a 0 to 100 scale where 0 is no effect and 100 is complete control. A dash (-) response means no test result."}, "[2]": {"system": "ragweed (common ragweed, Ambrosia elatior)", "assay": "Test A preemergence, ragweed", "conditions": "0 to 100 scale", "text": "as §1"}, "[3]": {"system": "pigweed (Amaranthus retroflexus)", "assay": "Test A preemergence, pigweed", "conditions": "0 to 100 scale", "in_short": "(§2)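 Seeds sown in loam–sand blend received a preemergence directed soil spray; postemergence plants at one- to two-leaf stage (2 to 10 cm) were sprayed. Compounds formulated in non-phytotoxic solvent with surfactant. Injury rated visually versus untreated controls after approximately 10 days in greenhouse, 0 (no effect) to 100 (complete control).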"}, "[4]": {"system": "kochia (Kochia scoparia)", "assay": "Test A postemergence, kochia", "conditions": "0 to 100 scale", "text": "as §1"}, "[5]": {"system": "ryegrass, Italian (Italian ryegrass, Lolium multiflorum)", "assay": "Test A postemergence, ryegrass, Italian", "conditions": "0 to 100 scale", "text": "as §1"}, "[6]": {"system": "pigweed (Amaranthus retroflexus)", "assay": "Test A postemergence, pigweed", "conditions": "0 to 100 scale", "in_short": "as §2"}, "[7]": {"system": "corn (Zea mays)", "assay": "Test A postemergence, corn", "conditions": "0 to 100 scale", "in_short": "as §2"}, "[8]": {"system": "sedge, umbrella (small-flower umbrella sedge, Cyperus difformis)", "assay": "Test B flooded paddy test, sedge, umbrella", "conditions": "Flood, 250 g ai/ha; scale of 0 to 100", "in_short": "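Scored visually 0–100 (0 no effect, 100 complete control) versus controls after 13 to 15 greenhouse days. Treatment: compound added to paddy water kept 3 cm above soil, on 2-leaf-stage plants.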"}, "[9]": {"system": "blackgrass (Alopecurus myosuroides)", "assay": "Test C postemergence, blackgrass", "text": "(§3) Seeds of plant species selected from blackgrass (Alopecurus myosuroides), ryegrass, Italian (Italian ryegrass, Lolium multiflorum), wheat (winter wheat, Triticum aestivum), galium (catchweed bedstraw, Galium aparine), corn (Zea mays), crabgrass, large (large crabgrass, Digitaria sanguinalis), foxtail, giant (giant foxtail, Setaria faberii), lambsquarters (Chenopodium album), morningglory (Ipomoea coccinea), nutsedge, yellow (yellow nutsedge, Cyperus esculentus), pigweed (Amaranthus retroflexus), johnsongrass (Sorghum halepense), ragweed (common ragweed, Ambrosia elatior), soybean (Glycine max), barnyardgrass (Echinochloa crus-galli), oilseed rape (Brassica napus), waterhemp (common waterhemp, Amaranthus rudis), chickweed (common chickweed, Stellaria media), oat, wild (wild oat, Avena fatua), kochia (Kochia scoparia), and velvetleaf (Abutilon theophrasti) were planted in pots containing Redi-Earth® planting medium (Scotts Company, 14111 Scottslawn Road, Marysville, Ohio 43041) comprising spaghnum peat moss, vermiculite, wetting agent and starter nutrients and treated with postemergence applications of a test chemical formulated in a non-phytotoxic solvent mixture which included a surfactant. Plants ranged in height from 2 to 18 cm (1- to 4-leaf stage) for postemergence treatments. Treated plants and controls were maintained in a greenhouse for 13 to 15 days, after which time all species were compared to controls and visually evaluated. Plant response ratings, summarized in Table C, are based on a scale of 0 to 100 where 0 is no effect and 100 is complete control. A dash (-) response means no test result."}, "[10]": {"system": "ryegrass, Italian (Italian ryegrass, Lolium multiflorum)", "assay": "Test C postemergence, ryegrass, Italian", "text": "as §3"}, "[11]": {"system": "galium (catchweed bedstraw, Galium aparine)", "assay": "Test C postemergence, galium", "text": "as §3"}, "[12]": {"system": "corn (Zea mays)", "assay": "Test C postemergence, corn", "text": "as §3"}, "[13]": {"system": "foxtail, giant (giant foxtail, Setaria faberii)", "assay": "Test C postemergence, foxtail, giant", "text": "as §3"}, "[14]": {"system": "lambsquarters (Chenopodium album)", "assay": "Test C postemergence, lambsquarters", "text": "as §3"}, "[15]": {"system": "barnyardgrass (Echinochloa crus-galli)", "assay": "Test C postemergence, barnyardgrass", "text": "as §3"}, "[16]": {"system": "oilseed rape (Brassica napus)", "assay": "Test C postemergence, oilseed rape", "text": "as §3"}, "[17]": {"system": "waterhemp (common waterhemp, Amaranthus rudis)", "assay": "Test C postemergence, waterhemp", "text": "as §3"}, "[18]": {"system": "velvetleaf (Abutilon theophrasti)", "assay": "Test C postemergence, velvetleaf", "text": "as §3"}},
  "data": [
    {"smiles": "FC(F)c1cc(-c2ncccc2Oc2ncc(Cl)cn2)on1", "note": "[Compound 5, 5-chloro-2-[[2-[3-(difluoromethyl)-5-isoxazolyl]-3-pyridinyl]oxy]pyrimidine]", "values": [
      {"measurement": "Plant response rating, Kochia", "setting": "[1]; 31 g ai/ha", "result": 10},
      {"measurement": "Plant response rating, Kochia", "setting": "[1]; 125 g ai/ha", "result": 80},
      {"measurement": "Plant response rating, Ragweed", "setting": "[2]; 31 g ai/ha", "result": 0},
      {"measurement": "Plant response rating, Ragweed", "setting": "[2]; 125 g ai/ha", "result": 10},
      {"measurement": "Plant response rating, Pigweed", "setting": "[3]; 31 g ai/ha", "result": 80},
      {"measurement": "Plant response rating, Pigweed", "setting": "[3]; 125 g ai/ha", "result": 100},
      {"measurement": "Plant response rating, Kochia", "setting": "[4]; 31 g ai/ha", "result": 80},
      {"measurement": "Plant response rating, Kochia", "setting": "[4]; 125 g ai/ha", "result": 90},
      {"measurement": "Plant response rating, Ryegrass, Italian", "setting": "[5]; 31 g ai/ha", "result": 0},
      {"measurement": "Plant response rating, Ryegrass, Italian", "setting": "[5]; 125 g ai/ha", "result": 0},
      {"measurement": "Plant response rating, Pigweed", "setting": "[6]; 31 g ai/ha", "result": 80},
      {"measurement": "Plant response rating, Pigweed", "setting": "[6]; 125 g ai/ha", "result": 90},
      {"measurement": "Plant response rating, Corn", "setting": "[7]; 31 g ai/ha", "result": 0},
      {"measurement": "Plant response rating, Corn", "setting": "[7]; 125 g ai/ha", "result": 10},
      {"measurement": "Plant response rating, Sedge, Umbrella", "setting": "[8]", "result": 80},
      {"measurement": "Plant response rating, Blackgrass", "setting": "[9]; 16 g ai/ha", "result": 0},
      {"measurement": "Plant response rating, Blackgrass", "setting": "[9]; 31 g ai/ha", "result": 0},
      {"measurement": "Plant response rating, Blackgrass", "setting": "[9]; 62 g ai/ha", "result": 0},
      {"measurement": "Plant response rating, Blackgrass", "setting": "[9]; 125 g ai/ha", "result": 5},
      {"measurement": "Plant response rating, Ryegrass, Italian", "setting": "[10]; 16 g ai/ha", "result": 0},
      {"measurement": "Plant response rating, Ryegrass, Italian", "setting": "[10]; 31 g ai/ha", "result": 5},
      {"measurement": "Plant response rating, Ryegrass, Italian", "setting": "[10]; 62 g ai/ha", "result": 0},
      {"measurement": "Plant response rating, Ryegrass, Italian", "setting": "[10]; 125 g ai/ha", "result": 5},
      {"measurement": "Plant response rating, Galium", "setting": "[11]; 16 g ai/ha", "result": 35},
      {"measurement": "Plant response rating, Galium", "setting": "[11]; 31 g ai/ha", "result": 75},
      {"measurement": "Plant response rating, Galium", "setting": "[11]; 62 g ai/ha", "result": 80},
      {"measurement": "Plant response rating, Galium", "setting": "[11]; 125 g ai/ha", "result": 90},
      {"measurement": "Plant response rating, Corn", "setting": "[12]; 16 g ai/ha", "result": 5},
      {"measurement": "Plant response rating, Corn", "setting": "[12]; 31 g ai/ha", "result": 5},
      {"measurement": "Plant response rating, Corn", "setting": "[12]; 62 g ai/ha", "result": 5},
      {"measurement": "Plant response rating, Corn", "setting": "[12]; 125 g ai/ha", "result": 5},
      {"measurement": "Plant response rating, Foxtail, Giant", "setting": "[13]; 16 g ai/ha", "result": 0},
      {"measurement": "Plant response rating, Foxtail, Giant", "setting": "[13]; 31 g ai/ha", "result": 5},
      {"measurement": "Plant response rating, Foxtail, Giant", "setting": "[13]; 62 g ai/ha", "result": 5},
      {"measurement": "Plant response rating, Foxtail, Giant", "setting": "[13]; 125 g ai/ha", "result": 10},
      {"measurement": "Plant response rating, Lambsquarters", "setting": "[14]; 16 g ai/ha", "result": 35},
      {"measurement": "Plant response rating, Lambsquarters", "setting": "[14]; 31 g ai/ha", "result": 70},
      {"measurement": "Plant response rating, Lambsquarters", "setting": "[14]; 62 g ai/ha", "result": 55},
      {"measurement": "Plant response rating, Lambsquarters", "setting": "[14]; 125 g ai/ha", "result": 60},
      {"measurement": "Plant response rating, Barnyardgrass", "setting": "[15]; 16 g ai/ha", "result": 0},
      {"measurement": "Plant response rating, Barnyardgrass", "setting": "[15]; 31 g ai/ha", "result": 0},
      {"measurement": "Plant response rating, Barnyardgrass", "setting": "[15]; 62 g ai/ha", "result": 5},
      {"measurement": "Plant response rating, Barnyardgrass", "setting": "[15]; 125 g ai/ha", "result": 10},
      {"measurement": "Plant response rating, Oilseed Rape", "setting": "[16]; 16 g ai/ha", "result": 5},
      {"measurement": "Plant response rating, Oilseed Rape", "setting": "[16]; 31 g ai/ha", "result": 60},
      {"measurement": "Plant response rating, Oilseed Rape", "setting": "[16]; 62 g ai/ha", "result": 60},
      {"measurement": "Plant response rating, Oilseed Rape", "setting": "[16]; 125 g ai/ha", "result": 85},
      {"measurement": "Plant response rating, Waterhemp", "setting": "[17]; 16 g ai/ha", "result": 60},
      {"measurement": "Plant response rating, Waterhemp", "setting": "[17]; 31 g ai/ha", "result": 65},
      {"measurement": "Plant response rating, Waterhemp", "setting": "[17]; 62 g ai/ha", "result": 75},
      {"measurement": "Plant response rating, Waterhemp", "setting": "[17]; 125 g ai/ha", "result": 85},
      {"measurement": "Plant response rating, Velvetleaf", "setting": "[18]; 16 g ai/ha", "result": 40},
      {"measurement": "Plant response rating, Velvetleaf", "setting": "[18]; 31 g ai/ha", "result": 50},
      {"measurement": "Plant response rating, Velvetleaf", "setting": "[18]; 62 g ai/ha", "result": 70},
      {"measurement": "Plant response rating, Velvetleaf", "setting": "[18]; 125 g ai/ha", "result": 60}
    ]}
  ]
}
